{"source": "patent US4302535A", "about": "“Assay for mutagenesis in heterozygous diploid human lymphoblasts” (Massachusetts Institute of Technology, priority 1979, dated 1981)", "key": {"[1]": {"system": "TK6 cells", "conditions": "induced by BMS (3 mM, 2 hours), 5 μg/ml 6-thioguanine"}, "[2]": {"system": "TK6 cell line", "experiment": "Mutation assay employing TK6 cell line: induction of TFTdR-resistant mutants (Example 2, Table 1)", "type": "cell-based, human", "procedure": "One cell line, TK6, isolated in Example 1, was maintained in spinner culture at 37° C. with a doubling time of approximately 18 hours. Approximately 10^7 cells (4×10^5 /ml) were treated with either BMS (1 mM) of ICR-191 (0.25 μg/ml and 0.50 μg/ml) for 24 hours. After treatment, the cells were centrifuged and resuspended in fresh medium at a concentration of 3×10^5 /ml. Dilutions to 3×10^5 /ml were made daily.\nAt various times after treatment, duplicate aliquots of 4×10^6 cells were centrifuged and resuspended in 10 ml of RPMI containing 20% FCS, 100 μ/ml penicillin, and 0.25% agarose (plating agar). To determine the plating efficiency of the culture, a […] sample of the suspension containing 4000 cells was added to 5 ml of plating agar and layered over 5 ml prejelled layer of the same medium in a 100 mm petri dish. […] The suspension was then plated in two 5 ml aliquots, each layered over a prejelled layer of plating agar in a 100 mm petri dish (final TFTdR concentration=1 μg/ml). The plates were fed the following day with 3 ml of medium.\nThe plates were counted after 7-10 days in a 37° C., 5% CO2, humidified incubator."}, "[3]": {"system": "TK6 cells and trifluorothymidine-resistant mutants", "experiment": "Reconstruction experiment: toxicity of BMS to TK6 and mutants (Example 7, FIG. 5)", "type": "cell-based, human", "conditions": "24 hours exposure; relative surviving fraction", "procedure": "TK6 cells were exposed to BMS for 24 hours. After treatment, the relative surviving fraction was determined by plating in micro wells."}, "[4]": {"system": "TK6 cells", "experiment": "Mutagenicity of polyaromatic hydrocarbons, trifluorothymidine resistance (Example 8, Table 4)", "conditions": "conclusion from plots and tables", "procedure": "Three polyaromatic hydrocarbons derived from kerosine soot were examined for mutagenicity.\nError bars are the standard deviation of the mean.\nFor perylene, TK6 cells were treated in duplicate with perylene for 3 hours in the presence of 5% (v/v) aroclor-induced rat liver post-mitochondrial supernatant."}, "[5]": {"system": "trifluorothymidine-resistant TK6 mutant clones and TK6", "experiment": "Growth of trifluorothymidine-resistant mutants in various media (Example 4, Table 2)", "type": "cell-based, human", "set-up": "key to T2 - F3 TdR (doubling time): NG means no growth was observed in 3 days", "conditions": "F3 TdR 1.0 μg/ml", "procedure": "Growth experiments were performed approximately three weeks later, in 25 cm^2 […] total volume. […] RPMI is normal medium with 15% fetal calf serum. […] CHAT contained 1×10^-5 M cytidine, 2×10^-4 M hypoxanthine, 2×10^-7 M aminopterin, and 1.75×10^-5 M thymidine."}, "[6]": {"system": "TK6 cells", "experiment": "Optimization of selective agent concentration (Example 6, FIG. 4)", "type": "cell-based, human", "conditions": "0.33 μg/ml through 10 μg/ml; microtiter plates, two weeks", "excerpt": "FIG. 4 is a plot of the data obtained wherein each point is the average of two independent platings."}, "[7]": {"system": "trifluorothymidine-resistant TK6 mutant clones", "experiment": "Plating efficiency of induced mutants in trifluorothymidine (Example 6, Table 3)", "type": "cell-based, human", "excerpt": "The effect of dead TK6 cells on the expression of mutants growing in microtiter plates was also studied."}, "[8]": {"conditions": "1 mM × 24 Hrs, day 1 post-treatment"}, "[9]": {"conditions": "1 mM × 24 Hrs, day 3 post-treatment"}, "[10]": {"conditions": "1 mM × 24 Hrs, day 5 post-treatment"}, "[11]": {"conditions": "0.25 μg/ml × 24 Hrs, day 0 post-treatment"}, "[12]": {"conditions": "0.25 μg/ml × 24 Hrs, day 2 post-treatment"}, "[13]": {"conditions": "0.25 μg/ml × 24 Hrs, day 4 post-treatment"}, "[14]": {"conditions": "0.5 μg/ml × 24 Hrs, day 0 post-treatment"}, "[15]": {"conditions": "0.5 μg/ml × 24 Hrs, day 2 post-treatment"}, "[16]": {"conditions": "0.5 μg/ml × 24 Hrs, day 4 post-treatment"}}, "data": [{"smiles": "Nc1nc2nc[nH]c2c(=S)[nH]1", "note": "[6-thioguanine]", "values": [{"measurement": "phenotypic expression time of 6-thioguanine resistance", "setting": "[1]", "result": "5 to 6", "unit": "days"}]}, {"smiles": "CCCCOS(C)(=O)=O", "note": "[BMS, butylmethane sulfonate]", "values": [{"measurement": "Observed Mutants per 4 × 10^6 Cells", "setting": "[2]; [8]", "result": 132}, {"measurement": "Plating Efficiency", "setting": "[2]; [8]", "result": 0.094}, {"measurement": "Observed Mutants per 4 × 10^6 Cells", "setting": "[2]; [9]", "result": 275}, {"measurement": "Plating Efficiency", "setting": "[2]; [9]", "result": 0.15}, {"measurement": "Observed Mutants per 4 × 10^6 Cells", "setting": "[2]; [10]", "result": 387}, {"measurement": "Plating Efficiency", "setting": "[2]; [10]", "result": 0.23}, {"measurement": "toxicity to TK6 and a mixture of mutants or a single mutant clone", "setting": "[3]", "result": "equally toxic"}]}, {"smiles": "COc1ccc2nc3cc(Cl)ccc3c(NCCCNCCCl)c2c1", "note": "[ICR-191]", "values": [{"measurement": "Observed Mutants per 4 × 10^6 Cells", "setting": "[2]; [11]", "result": 26}, {"measurement": "Plating Efficiency", "setting": "[2]; [11]", "result": 0.25}, {"measurement": "Observed Mutants per 4 × 10^6 Cells", "setting": "[2]; [12]", "result": 139}, {"measurement": "Plating Efficiency", "setting": "[2]; [12]", "result": 0.26}, {"measurement": "Observed Mutants per 4 × 10^6 Cells", "setting": "[2]; [13]", "result": 126}, {"measurement": "Plating Efficiency", "setting": "[2]; [13]", "result": 0.27}, {"measurement": "Observed Mutants per 4 × 10^6 Cells", "setting": "[2]; [14]", "result": 55}, {"measurement": "Plating Efficiency", "setting": "[2]; [14]", "result": 0.24}, {"measurement": "Observed Mutants per 4 × 10^6 Cells", "setting": "[2]; [15]", "result": 229}, {"measurement": "Plating Efficiency", "setting": "[2]; [15]", "result": 0.25}, {"measurement": "Observed Mutants per 4 × 10^6 Cells", "setting": "[2]; [16]", "result": 182}, {"measurement": "Plating Efficiency", "setting": "[2]; [16]", "result": 0.20}]}, {"smiles": "c1ccc2c(c1)-c1cccc3cccc-2c13", "note": "[fluoranthene]", "values": [{"measurement": "mutagenic activity for these human cells", "setting": "[4]", "result": "active as mutagens"}]}, {"smiles": "c1cc2cccc3c4cccc5cccc(c(c1)c23)c54", "note": "[perylene]", "values": [{"measurement": "mutagenic activity for these human cells", "setting": "[4]", "result": "inactive"}]}, {"smiles": "O=c1[nH]c(=O)n([C@H]2C[C@H](O)[C@@H](CO)O2)cc1C(F)(F)F", "note": "[trifluorothymidine]", "values": [{"measurement": "T2 - F3 TdR (doubling time)", "setting": "[5]; TK6", "result": "NG"}, {"measurement": "growth of mutants in F3 TdR", "setting": "[5]; all mutants", "result": "all mutants grew well"}, {"measurement": "T2 - F3 TdR (doubling time)", "setting": "[5]; mutant BMS-2", "result": 18.4}, {"measurement": "T2 - F3 TdR (doubling time)", "setting": "[5]; mutant BMS-3", "result": 19.2}, {"measurement": "T2 - F3 TdR (doubling time)", "setting": "[5]; mutant BMS-4", "result": 17.7}, {"measurement": "T2 - F3 TdR (doubling time)", "setting": "[5]; mutant BMS-5", "result": 19.7}, {"measurement": "T2 - F3 TdR (doubling time)", "setting": "[5]; mutant ICR-1", "result": 18.6}, {"measurement": "T2 - F3 TdR (doubling time)", "setting": "[5]; mutant ICR-2", "result": 21.2}, {"measurement": "observed mutant fraction of an untreated culture versus trifluorothymidine concentration", "setting": "[6]", "result": "no difference in the observed mutant fraction"}, {"measurement": "PE in RPMI - F3 TdR", "setting": "[7]; mutant BMS-2", "result": 0.09}, {"measurement": "PE in RPMI-F3 TdR with 40,000 TK6/well", "setting": "[7]; mutant BMS-2", "result": 0.09}, {"measurement": "PE in RPMI - F3 TdR", "setting": "[7]; mutant BMS-3", "result": 0.21}, {"measurement": "PE in RPMI-F3 TdR with 40,000 TK6/well", "setting": "[7]; mutant BMS-3", "result": 0.17}, {"measurement": "PE in RPMI - F3 TdR", "setting": "[7]; mutant BMS-4", "result": 0.11}, {"measurement": "PE in RPMI-F3 TdR with 40,000 TK6/well", "setting": "[7]; mutant BMS-4", "result": 0.15}, {"measurement": "PE in RPMI - F3 TdR", "setting": "[7]; mutant BMS-5", "result": 0.29}, {"measurement": "PE in RPMI-F3 TdR with 40,000 TK6/well", "setting": "[7]; mutant BMS-5", "result": 0.31}, {"measurement": "PE in RPMI - F3 TdR", "setting": "[7]; mutant ICR-1", "result": 0.21}, {"measurement": "PE in RPMI-F3 TdR with 40,000 TK6/well", "setting": "[7]; mutant ICR-1", "result": 0.21}, {"measurement": "PE in RPMI - F3 TdR", "setting": "[7]; mutant ICR-2", "result": 0.09}, {"measurement": "PE in RPMI-F3 TdR with 40,000 TK6/well", "setting": "[7]; mutant ICR-2", "result": 0.10}]}]}
